Experimental data from a melting point compilation (Tetko et al.).

Row | Structure (SMILES) | melting point [°C]
1 | CC(Cl)C(=O)NC(=O)Nc1ccccc1F (configuration not stated) | 135 to 137
2 | CN(C)C(=N)CC#N | 79 to 81
3 | O=C(O)c1ccc(N2CCc3ccccc3C2)cc1 | 209 to 211
4 | N#CCCc1c(Cl)cccc1Cl | 40 to 42
5 | Nc1cc(-c2cccc(Cl)c2Cl)[nH]n1 | 110 to 112
6 | O=C(c1ccccc1)c1ccc(OC(F)F)cc1 | 156 to 158
7 | Nc1ccc(S(=O)(=O)Nc2ccc(Cl)cc2)cc1N | 146 to 150
8 | O=C1CCCCC1c1ccc(C(F)(F)F)cc1 (configuration not stated) | 96 to 98
9 | O=C(O)c1cccc(NC(=O)c2ccco2)c1 | 224 to 226
10 | Cc1ccc2c(n1)OCCN2 | 109 to 111
11 | COCCCS(=O)(=O)NCC(=O)O | 59 to 61
12 | COc1ccc2c(CCl)cc(=O)oc2c1 | 189 to 191
13 | COc1ccc(OC)c(-c2csc(N)n2)c1 | 113 to 115
14 | O=C(NCCc1ccccn1)OCC(F)(F)F | 59 to 61
15 | N#Cc1c(OCCCO)n[nH]c1N | 155 to 157
16 | O=C(CCCCl)c1cc(F)ccc1O | 66 to 68
17 | COc1ccc(S(=O)(=O)Nc2nccs2)cc1 | 172 to 174
18 | Cc1[nH]c2ccc(CN)cc2c1C | 149 to 151
19 | c1cncc(NCc2ccco2)c1 | 45 to 49
20 | O=S(=O)(Cl)C1CCCCC1O (configuration not stated) | 49 to 51
21 | NNC(=O)c1cc2ccccc2o1 | 171 to 173
22 | CN1CCN(C(N)=O)C(c2ccccc2)C1 (configuration not stated) | 94 to 96
23 | CCC(C)NC(=O)CN1CCNCC1 (configuration not stated) | 55 to 57
24 | NNC(=O)CSc1nnc(-c2ccccc2)n1-c1ccccc1 | 242 to 244

Row | Structure (SMILES) | melting point [°C]
25 | Nc1nc2c(cc1C(=O)O)CCCC2 | 285 to 287
26 | O=C(O)C1CSCN1C(=O)C1CCCC1 (configuration not stated) | 114 to 116
27 | N#Cc1ccccc1Oc1cnccn1 | 73 to 75
28 | CCn1c(CCC(=O)O)nc2cc(S(N)(=O)=O)ccc21 | 263 to 265
29 | CCN(CC)S(=O)(=O)c1ccc(Cl)c(S(=O)(=O)Cl)c1 | 99 to 101
30 | O=C(O)CSc1cnc2ccccc2n1 | 178 to 180
31 | FC(F)c1nc(Cl)c2ccccc2n1 | 85 to 87
32 | O=Cc1c[nH]c2cccc(F)c12 | 169 to 171
33 | N#Cc1cccc(I)c1N | 115 to 117
34 | COc1ccc2cc(C(=O)O)c(C)nc2c1 | 209 to 211
35 | Cc1cc(C=O)c(C)n1-c1ccc2c(c1)CCC2 | 71 to 75
36 | COC(=O)c1cc([N+](=O)[O-])ccc1S(=O)(=O)Cl | 109 to 111
37 | COc1cc(C(=O)Oc2ccc(C=O)cc2)cc(OC)c1OC | 113 to 115
38 | COC(=O)c1ccc(C#N)cc1OC | 101 to 103
39 | CC(O)c1cc[nH]n1 (configuration not stated) | 58 to 60
40 | O=C1NC(=O)C(Cc2ccccc2)(Cc2ccccc2)N1 | 318 to 320
41 | Cc1cc2cc(Cl)cc(Cl)c2[nH]1 | 49 to 51
42 | c1ccc2oc(N3CCNCC3)nc2c1 | 74 to 76
43 | COc1cccc2c1OCC(C(=O)O)C2 (configuration not stated) | 174 to 176
44 | O=C(O)c1cc2cc(Br)ccc2[nH]1 | 283 to 285
45 | CCOc1nnc(-c2ccccc2)n1-c1ccccc1 | 154 to 156
46 | O=C(NC(C(=O)O)c1ccccc1)c1ccccc1 (configuration not stated) | 198 to 200
47 | CC(N)c1ccc(S(N)(=O)=O)cc1 (configuration not stated) | 148 to 150
48 | COc1cccc(-c2cc(N)n(-c3ccccc3)n2)c1 | 112 to 114

Row | Structure (SMILES) | melting point [°C]
49 | ClCc1nnnn1CC1CC1 | 30 to 32
50 | CC(C)(C)C(N)=S | 114 to 116
51 | O=C(O)c1ccccc1COc1ccccc1C(=O)O | 199 to 201
52 | FC(F)Sc1ccc(Nc2nnc(S)s2)cc1 | 188 to 190
53 | O=C(O)c1nn(-c2ccc(F)cc2)c2c1CCC2 | 202 to 204
54 | NCC(=O)Nc1ccc(F)cc1 | 85 to 87
55 | Nc1nc(-c2ccc[nH]2)cs1 | 155 to 159
56 | CNC(c1ccc(Cl)cc1)c1ccc(Cl)cc1 | 49 to 51
57 | CN(C)C(C)(C(=O)O)c1ccc(Cl)cc1 (configuration not stated) | 239 to 241
58 | CC(C)(C)c1ccccc1OCC(=O)O | 144 to 148
59 | CC(C)(C)OC(=O)N1CCCC(C(C)(C)C(=O)O)C1 (configuration not stated) | 96 to 98
60 | Nc1[nH]ncc1[N+](=O)[O-] | 237 to 239
61 | CC(NC(=O)CCl)c1ccc2c(c1)CCCC2 (configuration not stated) | 134 to 136
62 | O=C(O)c1cc(C(F)(F)F)ccc1SC1CCCC1 | 174 to 176
63 | Nc1ccc(-c2cn3ccccc3n2)cc1 | 118 to 120
64 | CCOc1ncccc1C(=O)O | 90 to 92
65 | Nc1cnccc1SCCCO | 71 to 73
66 | O=C(O)CCCCCN1C(=O)CSC1=S | 85 to 87
67 | CCOc1ccc(C(=O)c2ccccc2Cl)cc1 | 86 to 88
68 | CCOC(=O)c1sc(N)c(C#N)c1CBr | 206 to 208
69 | N#Cc1cnn(-c2ccc(C(=O)O)cc2)c1N | 289 to 291
70 | Cc1ccc(F)c(-n2nnnc2CCl)c1 | 51 to 53
71 | O=c1c2ccccc2nnn1CO | 133 to 135
72 | Nc1ccc(C(=O)NC2CCCC2)cc1 | 141 to 143
